Assay results as given in PubChem BioAssay (NCI).
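Method: 48-hour compound exposure of cells in 96-well plates, five concentrations, linear interpolation of endpoints. Abbreviation: GI50, concentration required for 50% inhibition of growth. TGI marks complete inhibition of growth.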

Assays:
Experiment in all cases: NCI-60 cell line screen, 48 h
786-0 renal = tested on: 786-0 renal
A498 renal = tested on: A498 renal
A549 NSCLC = tested on: A549 NSCLC
ACHN renal = tested on: ACHN renal
BT-549 breast = tested on: BT-549 breast
CCRF-CEM leukemia = tested on: CCRF-CEM leukemia
COLO 205 colon = tested on: COLO 205 colon
DU-145 prostate = tested on: DU-145 prostate
EKVX NSCLC = tested on: EKVX NSCLC
HCC-2998 colon = tested on: HCC-2998 colon
HCT-116 colon = tested on: HCT-116 colon
HCT-15 colon = tested on: HCT-15 colon
HL-60(TB) leukemia = tested on: HL-60(TB) leukemia
HOP-62 NSCLC = tested on: HOP-62 NSCLC
HS 578T breast = tested on: HS 578T breast
HT29 colon = tested on: HT29 colon
IGROV1 ovarian = tested on: IGROV1 ovarian
K-562 leukemia = tested on: K-562 leukemia
KM12 colon = tested on: KM12 colon
LOX IMVI melanoma = tested on: LOX IMVI melanoma
M14 melanoma = tested on: M14 melanoma
MALME-3M melanoma = tested on: MALME-3M melanoma
MCF7 breast = tested on: MCF7 breast
MDA-MB-231 breast = tested on: MDA-MB-231 breast
MDA-MB-435 = tested on: MDA-MB-435
MOLT-4 leukemia = tested on: MOLT-4 leukemia
NCI-H226 lung = tested on: NCI-H226 lung
NCI-H23 lung = tested on: NCI-H23 lung
NCI-H460 lung = tested on: NCI-H460 lung
NCI-H522 lung = tested on: NCI-H522 lung
NCI/ADR-RES ovarian = tested on: NCI/ADR-RES ovarian
OVCAR-3 ovarian = tested on: OVCAR-3 ovarian
OVCAR-4 ovarian = tested on: OVCAR-4 ovarian
OVCAR-5 ovarian = tested on: OVCAR-5 ovarian
OVCAR-8 ovarian = tested on: OVCAR-8 ovarian
PC-3 prostate = tested on: PC-3 prostate
RPMI-8226 leukemia = tested on: RPMI-8226 leukemia
SF-268 CNS = tested on: SF-268 CNS
SF-295 CNS = tested on: SF-295 CNS
SF-539 CNS = tested on: SF-539 CNS
SK-MEL-2 melanoma = tested on: SK-MEL-2 melanoma
SK-MEL-28 melanoma = tested on: SK-MEL-28 melanoma
SK-MEL-5 melanoma = tested on: SK-MEL-5 melanoma
SK-OV-3 ovarian = tested on: SK-OV-3 ovarian
SN12C renal = tested on: SN12C renal
SNB-19 CNS = tested on: SNB-19 CNS
SNB-75 CNS = tested on: SNB-75 CNS
SR leukemia = tested on: SR leukemia
SW-620 colon = tested on: SW-620 colon
TK-10 renal = tested on: TK-10 renal
U251 CNS = tested on: U251 CNS
UACC-257 melanoma = tested on: UACC-257 melanoma
UACC-62 melanoma = tested on: UACC-62 melanoma
UO-31 renal = tested on: UO-31 renal
CAKI-1 renal = tested on: CAKI-1 renal
HOP-92 NSCLC = tested on: HOP-92 NSCLC
RXF 393 renal = tested on: RXF 393 renal
T-47D breast = tested on: T-47D breast

## COC(=O)C12C3C4C1C1C2C3C41NC(=O)c1csc([C@@H](C[C@H](C(C)C)N(C)C(=O)[C@@H](NC(=O)[C@H]2CCCCN2C)C2CC2)OC(C)=O)n1 (stereo not given in full)
786-0 renal
  GI50: 88 nM
  TGI: > 33300 nM
A498 renal
  GI50: 116 nM
  TGI: > 10600 nM
A549 NSCLC
  GI50: 157 nM
  TGI: > 33300 nM
ACHN renal
  GI50: 90.3 nM
  TGI: > 33300 nM
BT-549 breast
  GI50: < 3.33 nM
  TGI: 4100 nM
CCRF-CEM leukemia
  GI50: 7.32 nM
  TGI: > 33300 nM
COLO 205 colon
  GI50: 7.27 nM
  TGI: 379 nM
DU-145 prostate
  GI50: 6.71 nM
  TGI: > 33300 nM
EKVX NSCLC
  GI50: 80 nM
  TGI: > 33300 nM
HCC-2998 colon
  GI50: 146 nM
  TGI: > 33300 nM
HCT-116 colon
  GI50: 12.3 nM
  TGI: > 33300 nM
HCT-15 colon
  GI50: 138 nM
  TGI: > 33300 nM
HL-60(TB) leukemia
  GI50: 3.56 nM
  TGI: 7.77 nM
HOP-62 NSCLC
  GI50: 48 nM
  TGI: > 33300 nM
HS 578T breast
  GI50: 7.73 nM
  TGI: > 33300 nM
HT29 colon
  GI50: 6.58 nM
  TGI: > 33300 nM
IGROV1 ovarian
  GI50: 22.6 nM
  TGI: > 33300 nM
K-562 leukemia
  GI50: 5.69 nM
  TGI: > 33300 nM
KM12 colon
  GI50: 8.18 nM
  TGI: > 33300 nM
LOX IMVI melanoma
  GI50: 8.82 nM
  TGI: > 33300 nM
M14 melanoma
  GI50: 25.3 nM
MALME-3M melanoma
  GI50: 58.1 nM
  TGI: > 33300 nM
MCF7 breast
  GI50: 6.06 nM
  TGI: > 33300 nM
MDA-MB-231 breast
  GI50: 41.4 nM
  TGI: 10900 nM
MDA-MB-435
  GI50: < 3.33 nM
  TGI: 9.92 nM
MOLT-4 leukemia
  GI50: 7.29 nM
  TGI: > 33300 nM
NCI-H226 lung
  GI50: 395 nM
  TGI: > 33300 nM
NCI-H23 lung
  GI50: 151 nM
  TGI: > 33300 nM
NCI-H460 lung
  GI50: 48.9 nM
  TGI: > 33300 nM
NCI-H522 lung
  GI50: 4.01 nM
  TGI: 1270 nM
NCI/ADR-RES ovarian
  GI50: 2700 nM
  TGI: > 33300 nM
OVCAR-3 ovarian
  GI50: 11.7 nM
  TGI: 860 nM
OVCAR-4 ovarian
  GI50: 500 nM
  TGI: > 33300 nM
OVCAR-5 ovarian
  GI50: 294 nM
  TGI: > 33300 nM
OVCAR-8 ovarian
  GI50: 40.4 nM
  TGI: > 33300 nM
PC-3 prostate
  GI50: 48.2 nM
  TGI: > 33300 nM
RPMI-8226 leukemia
  GI50: 6.96 nM
  TGI: > 33300 nM
SF-268 CNS
  GI50: 35.6 nM
  TGI: > 33300 nM
SF-295 CNS
  GI50: 47.6 nM
  TGI: > 33300 nM
SF-539 CNS
  GI50: 5.74 nM
  TGI: 110 nM
SK-MEL-2 melanoma
  GI50: 110 nM
  TGI: > 33300 nM
SK-MEL-28 melanoma
  TGI: > 33300 nM
SK-MEL-5 melanoma
  GI50: 9.77 nM
  TGI: 526 nM
SK-OV-3 ovarian
  GI50: 148 nM
  TGI: > 33300 nM
SN12C renal
  GI50: 24.2 nM
  TGI: > 33300 nM
SNB-19 CNS
  GI50: 77 nM
  TGI: > 33300 nM
SNB-75 CNS
  GI50: 5.95 nM
  TGI: > 33300 nM
SR leukemia
  GI50: < 3.33 nM
  TGI: > 33300 nM
SW-620 colon
  GI50: 7.46 nM
  TGI: > 33300 nM
TK-10 renal
  GI50: 4390 nM
  TGI: > 33300 nM
U251 CNS
  GI50: 52.7 nM
  TGI: > 33300 nM
UACC-257 melanoma
  GI50: > 16600 nM
  TGI: > 33300 nM
UACC-62 melanoma
  GI50: 5.95 nM
  TGI: > 33300 nM
UO-31 renal
  GI50: 350 nM
  TGI: > 33300 nM

## CC[C@H](C)[C@H]1O[C@]2(C=C[C@@H]1C)C[C@@H]1C[C@@H](C/C=C(\C)[C@@H](O[C@H]3C[C@H](OC)[C@@H](O[C@H]4C[C@H](OC)[C@@H](NC)[C@H](C)O4)[C@H](C)O3)[C@@H](C)/C=C/C=C3\CO[C@@H]4[C@H](O)C(C)=C[C@@H](C(=O)O1)[C@]34O)O2
786-0 renal
  GI50: 1260 nM
  TGI: 2940 nM
A498 renal
  GI50: 2680 nM
  TGI: 11600 nM
A549 NSCLC
  GI50: 2010 nM
  TGI: 6380 nM
ACHN renal
  GI50: 2730 nM
  TGI: 10800 nM
BT-549 breast
  GI50: 4130 nM
  TGI: 15100 nM
CAKI-1 renal
  GI50: 1890 nM
  TGI: 5020 nM
CCRF-CEM leukemia
  GI50: 1870 nM
  TGI: 4020 nM
COLO 205 colon
  GI50: 1770 nM
  TGI: 3390 nM
EKVX NSCLC
  GI50: 2130 nM
  TGI: 6510 nM
HCC-2998 colon
  GI50: 1890 nM
  TGI: 3360 nM
HCT-116 colon
  GI50: 2000 nM
  TGI: 5120 nM
HCT-15 colon
  GI50: 1780 nM
  TGI: 4460 nM
HL-60(TB) leukemia
  GI50: 1880 nM
  TGI: 3810 nM
HOP-62 NSCLC
  GI50: 1750 nM
  TGI: 4000 nM
HOP-92 NSCLC
  GI50: 2120 nM
  TGI: 9670 nM
HS 578T breast
  GI50: 2310 nM
  TGI: 6560 nM
HT29 colon
  GI50: 1880 nM
  TGI: 4140 nM
IGROV1 ovarian
  GI50: 3060 nM
  TGI: 12000 nM
K-562 leukemia
  GI50: 1970 nM
  TGI: 4220 nM
KM12 colon
  GI50: 3100 nM
  TGI: 11400 nM
LOX IMVI melanoma
  GI50: 1680 nM
  TGI: 3130 nM
M14 melanoma
  GI50: 1930 nM
  TGI: 3980 nM
MALME-3M melanoma
  GI50: 1850 nM
  TGI: 3690 nM
MCF7 breast
  GI50: 1850 nM
  TGI: 4340 nM
MDA-MB-231 breast
  GI50: 2000 nM
  TGI: 4400 nM
MDA-MB-435
  GI50: 1790 nM
  TGI: 3620 nM
MOLT-4 leukemia
  GI50: 1810 nM
  TGI: 4480 nM
NCI-H226 lung
  GI50: 4260 nM
  TGI: 16000 nM
NCI-H23 lung
  GI50: 2730 nM
  TGI: 8340 nM
NCI-H460 lung
  GI50: 1840 nM
  TGI: 3630 nM
NCI-H522 lung
  GI50: 1750 nM
  TGI: 3730 nM
NCI/ADR-RES ovarian
  GI50: 3050 nM
  TGI: 11300 nM
OVCAR-3 ovarian
  GI50: 3440 nM
  TGI: 11800 nM
OVCAR-4 ovarian
  GI50: 3300 nM
  TGI: 13400 nM
OVCAR-5 ovarian
  GI50: 3410 nM
  TGI: 14900 nM
OVCAR-8 ovarian
  GI50: 3840 nM
  TGI: 14500 nM
PC-3 prostate
  GI50: 2780 nM
  TGI: 11700 nM
RPMI-8226 leukemia
  GI50: 3320 nM
  TGI: 13600 nM
RXF 393 renal
  GI50: 2030 nM
  TGI: 4470 nM
SF-268 CNS
  GI50: 3900 nM
  TGI: 16000 nM
SF-295 CNS
  GI50: 2600 nM
  TGI: 8170 nM
SF-539 CNS
  GI50: 1810 nM
  TGI: 3370 nM
SK-MEL-2 melanoma
  GI50: 2540 nM
  TGI: 7070 nM
SK-MEL-28 melanoma
  GI50: 1730 nM
  TGI: 3470 nM
SK-MEL-5 melanoma
  GI50: 1800 nM
  TGI: 3200 nM
SK-OV-3 ovarian
  GI50: 3630 nM
  TGI: 13900 nM
SN12C renal
  GI50: 3040 nM
  TGI: 11300 nM
SNB-19 CNS
  GI50: 4270 nM
  TGI: 16900 nM
SNB-75 CNS
  GI50: 1930 nM
  TGI: 8440 nM
SR leukemia
  GI50: 1490 nM
  TGI: 4170 nM
SW-620 colon
  GI50: 2140 nM
  TGI: 4740 nM
T-47D breast
  GI50: 4400 nM
  TGI: 16800 nM
TK-10 renal
  GI50: 1960 nM
  TGI: 4990 nM
U251 CNS
  GI50: 1910 nM
  TGI: 4070 nM
UACC-257 melanoma
  GI50: 2030 nM
  TGI: 4210 nM
UACC-62 melanoma
  GI50: 1990 nM
  TGI: 4280 nM
UO-31 renal
  GI50: 1690 nM
  TGI: 4130 nM
